Results from patent publication US20240425518A1, “N-MACROCYCLIC AMIDE COMPOUNDS, PREPARATION METHODS THEREOF AND APPLICATIONS THEREOF AS MEDICAMENTS” (Chengdu FANXI Biopharma Co., Ltd., priority 2023, published 2024).
Changes are numbered by the printed parent chain.

Key:
Ab1 (h) = target: T1, Ab1 (h) (Homo sapiens, UniProt P00519); assay: Radioisotope labeling kinase assay (Eurofins), Ab1; assay type: biochemical; conditions: 1 μM compound; read-out: Inhibitory activity per unit concentration/Activity % Ab1 (h)
T1 construct: purchased Eurofins
T1 sequence (P00519 whole entry): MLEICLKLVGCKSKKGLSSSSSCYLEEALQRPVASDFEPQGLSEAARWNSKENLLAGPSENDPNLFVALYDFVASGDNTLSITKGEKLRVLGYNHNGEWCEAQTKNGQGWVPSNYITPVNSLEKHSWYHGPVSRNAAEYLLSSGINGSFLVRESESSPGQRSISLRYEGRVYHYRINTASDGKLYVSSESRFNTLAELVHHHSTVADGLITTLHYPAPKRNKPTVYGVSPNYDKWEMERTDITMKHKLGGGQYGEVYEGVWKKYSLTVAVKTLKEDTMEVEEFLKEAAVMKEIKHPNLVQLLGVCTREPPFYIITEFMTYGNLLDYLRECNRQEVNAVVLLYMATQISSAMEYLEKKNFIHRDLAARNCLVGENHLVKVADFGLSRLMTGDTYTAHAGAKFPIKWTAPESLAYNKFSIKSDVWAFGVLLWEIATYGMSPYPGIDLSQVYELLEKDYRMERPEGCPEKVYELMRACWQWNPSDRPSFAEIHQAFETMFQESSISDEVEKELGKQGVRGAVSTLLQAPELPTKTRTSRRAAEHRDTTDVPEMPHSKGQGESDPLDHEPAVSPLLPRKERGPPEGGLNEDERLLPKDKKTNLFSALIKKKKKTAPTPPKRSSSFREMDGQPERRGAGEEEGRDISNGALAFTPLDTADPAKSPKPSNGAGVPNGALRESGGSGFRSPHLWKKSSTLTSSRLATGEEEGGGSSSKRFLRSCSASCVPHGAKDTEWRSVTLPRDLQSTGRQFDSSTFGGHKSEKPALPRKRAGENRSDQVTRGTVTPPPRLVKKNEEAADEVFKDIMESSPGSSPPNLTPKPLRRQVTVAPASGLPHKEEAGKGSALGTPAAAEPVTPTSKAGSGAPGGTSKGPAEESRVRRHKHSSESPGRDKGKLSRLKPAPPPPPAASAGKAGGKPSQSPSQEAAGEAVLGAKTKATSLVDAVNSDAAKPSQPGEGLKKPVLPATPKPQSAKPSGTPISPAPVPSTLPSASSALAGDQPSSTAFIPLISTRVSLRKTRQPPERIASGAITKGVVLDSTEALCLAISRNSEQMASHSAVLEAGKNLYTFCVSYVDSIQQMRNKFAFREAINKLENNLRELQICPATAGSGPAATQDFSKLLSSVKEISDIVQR
Procedure: (§1) An activity to a human recombinant protein kinase of a series of compounds was determined by a radioisotope labeling method, which was provided by Eurofins Company. A compound to be detected was mixed with a corresponding protein kinase buffer (20 mM propyl sulfonate (MOPS, […].), 1 mM EDTA, 0.10 β-mercaptoethanol, 0.010 Brij-35, […], and 1 mg/mL BSA), the mixture was added into a reaction system (100 μM reaction substrate […], 8 mM MOPS with a pH value of 7.0, 10 mM MgAcetate, 0.2 mM EDTA, and a certain concentration of γ-^33P-ATP). After adding an MgATP composite solution, the reaction was started at room temperature for 40 minutes, and the reaction was terminated by adding 5 μl of […] solution. Then, 10 μl of reaction solution was dropwise added onto a filter and washed with 75 mM phosphoric acid solution for three times, 5 minutes each time, then washed with methanol once again, and dried and subjected to scintillation counting.

BTK (h) = target: T2, BTK (h) (Homo sapiens, UniProt Q06187); assay: Radioisotope labeling kinase assay (Eurofins), BTK; assay type: biochemical; conditions: 1 μM compound; read-out: Inhibitory activity per unit concentration/Activity % BTK (h)
T2 construct: purchased Eurofins
T2 sequence (Q06187 whole entry): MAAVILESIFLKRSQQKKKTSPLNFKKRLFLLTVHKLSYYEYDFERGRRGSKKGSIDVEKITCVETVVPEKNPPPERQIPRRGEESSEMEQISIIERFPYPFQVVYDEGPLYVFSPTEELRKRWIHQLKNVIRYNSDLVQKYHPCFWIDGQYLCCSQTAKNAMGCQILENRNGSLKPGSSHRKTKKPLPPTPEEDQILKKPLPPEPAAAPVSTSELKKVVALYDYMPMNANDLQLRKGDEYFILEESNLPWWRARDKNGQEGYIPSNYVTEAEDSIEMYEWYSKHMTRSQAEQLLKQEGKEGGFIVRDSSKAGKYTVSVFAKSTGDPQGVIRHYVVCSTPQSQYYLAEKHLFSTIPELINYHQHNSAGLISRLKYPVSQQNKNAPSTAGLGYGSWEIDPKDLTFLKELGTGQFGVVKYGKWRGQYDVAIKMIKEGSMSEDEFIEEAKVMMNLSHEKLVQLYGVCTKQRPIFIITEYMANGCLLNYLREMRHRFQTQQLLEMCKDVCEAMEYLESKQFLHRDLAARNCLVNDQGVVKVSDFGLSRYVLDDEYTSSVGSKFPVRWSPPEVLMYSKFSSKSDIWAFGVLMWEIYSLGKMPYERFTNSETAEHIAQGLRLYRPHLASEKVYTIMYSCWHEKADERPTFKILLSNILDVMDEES
Procedure: as §1

Flt3 (D835Y) (h) = target: T3, Flt3 (D835Y) (h) (Homo sapiens, UniProt P36888, D835Y); assay: Radioisotope labeling kinase assay (Eurofins), Flt3 (D835Y); assay type: biochemical; conditions: 1 μM compound; read-out: Inhibitory activity per unit concentration/Activity % Flt3 (D835Y) (h)
T3 construct: purchased Eurofins
T3 sequence (P36888 27-993 D835Y): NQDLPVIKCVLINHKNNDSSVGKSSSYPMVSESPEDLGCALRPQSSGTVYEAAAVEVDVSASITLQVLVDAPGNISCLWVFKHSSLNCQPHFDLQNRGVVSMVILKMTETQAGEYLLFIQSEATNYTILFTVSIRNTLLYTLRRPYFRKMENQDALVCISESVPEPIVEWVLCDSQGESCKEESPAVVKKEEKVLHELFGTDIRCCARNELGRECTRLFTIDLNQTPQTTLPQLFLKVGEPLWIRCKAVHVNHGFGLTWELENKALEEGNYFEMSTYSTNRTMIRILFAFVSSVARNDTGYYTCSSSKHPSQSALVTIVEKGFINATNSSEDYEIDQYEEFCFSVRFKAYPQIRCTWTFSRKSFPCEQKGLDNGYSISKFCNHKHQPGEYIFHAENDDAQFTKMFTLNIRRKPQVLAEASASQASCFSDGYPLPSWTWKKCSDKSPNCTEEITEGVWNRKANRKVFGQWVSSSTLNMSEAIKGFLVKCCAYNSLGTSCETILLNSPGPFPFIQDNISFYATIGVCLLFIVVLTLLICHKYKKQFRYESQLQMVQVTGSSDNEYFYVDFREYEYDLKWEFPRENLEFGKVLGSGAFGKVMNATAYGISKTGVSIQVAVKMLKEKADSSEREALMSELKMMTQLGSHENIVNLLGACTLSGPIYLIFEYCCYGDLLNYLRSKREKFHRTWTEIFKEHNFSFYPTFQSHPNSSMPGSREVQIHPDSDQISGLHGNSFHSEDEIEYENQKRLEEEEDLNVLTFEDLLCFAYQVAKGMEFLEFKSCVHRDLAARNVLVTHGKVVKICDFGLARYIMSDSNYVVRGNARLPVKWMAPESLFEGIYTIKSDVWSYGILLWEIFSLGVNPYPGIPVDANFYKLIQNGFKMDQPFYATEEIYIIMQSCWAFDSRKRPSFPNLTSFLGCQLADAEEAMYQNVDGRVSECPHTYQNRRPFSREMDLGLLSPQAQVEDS
Procedure: as §1

Flt3 (h) = target: T4, Flt3 (h) (Homo sapiens, UniProt P36888); assay: Radioisotope labeling kinase assay (Eurofins), Flt3; assay type: biochemical; conditions: 1 μM compound; read-out: Inhibitory activity per unit concentration/Activity % Flt3 (h)
T4 construct: purchased Eurofins
T4 sequence (P36888 27-993): T3 sequence (P36888 27-993 D835Y) with Y809D
Procedure: as §1

JAK3 (h) = target: T5, JAK3 (h) (Homo sapiens, UniProt P52333); assay: Radioisotope labeling kinase assay (Eurofins), JAK3; assay type: biochemical; conditions: 1 μM compound; read-out: Inhibitory activity per unit concentration/Activity % JAK3 (h)
T5 construct: purchased Eurofins
T5 sequence (P52333 1-1124): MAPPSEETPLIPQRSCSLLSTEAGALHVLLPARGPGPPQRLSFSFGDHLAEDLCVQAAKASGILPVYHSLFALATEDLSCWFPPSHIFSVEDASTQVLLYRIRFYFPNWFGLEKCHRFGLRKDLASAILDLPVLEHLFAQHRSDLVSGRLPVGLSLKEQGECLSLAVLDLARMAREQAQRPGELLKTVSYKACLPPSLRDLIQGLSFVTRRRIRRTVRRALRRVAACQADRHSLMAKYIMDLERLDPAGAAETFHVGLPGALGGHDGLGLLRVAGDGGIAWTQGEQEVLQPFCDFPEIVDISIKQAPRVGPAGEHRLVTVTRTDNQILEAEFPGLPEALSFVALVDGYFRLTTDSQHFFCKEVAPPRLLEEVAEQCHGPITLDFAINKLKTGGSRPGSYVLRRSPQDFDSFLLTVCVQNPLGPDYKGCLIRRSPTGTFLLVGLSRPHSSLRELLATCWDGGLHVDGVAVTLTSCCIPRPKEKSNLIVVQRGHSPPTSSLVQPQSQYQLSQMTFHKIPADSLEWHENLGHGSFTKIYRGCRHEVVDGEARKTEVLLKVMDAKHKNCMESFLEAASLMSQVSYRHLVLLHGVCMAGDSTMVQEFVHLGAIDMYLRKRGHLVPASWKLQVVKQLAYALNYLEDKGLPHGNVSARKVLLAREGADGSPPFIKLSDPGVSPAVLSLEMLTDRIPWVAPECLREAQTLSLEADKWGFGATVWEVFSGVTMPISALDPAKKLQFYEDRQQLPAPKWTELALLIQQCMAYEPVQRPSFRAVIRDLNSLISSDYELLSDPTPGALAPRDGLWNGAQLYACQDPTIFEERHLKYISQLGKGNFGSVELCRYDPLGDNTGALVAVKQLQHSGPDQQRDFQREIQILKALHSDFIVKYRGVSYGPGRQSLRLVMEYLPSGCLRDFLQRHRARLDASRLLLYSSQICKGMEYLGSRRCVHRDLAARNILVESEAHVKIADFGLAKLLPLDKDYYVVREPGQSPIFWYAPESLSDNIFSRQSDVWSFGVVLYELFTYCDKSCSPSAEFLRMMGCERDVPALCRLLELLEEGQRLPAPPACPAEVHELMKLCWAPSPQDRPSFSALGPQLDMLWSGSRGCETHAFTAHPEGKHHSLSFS
Procedure: as §1

[1] = from C=CCOCc1cc(NC(=O)OC(C)(C)C)cc(Nc2nccc(-c3cccc(COCC=C)c3)n2)c1; rcm bond; Zhan Catalyst 1B; dichloromethane; 6.66 mM; 50.0 °C; 3.0 h

Row | activity at 1 µM (Ab1 (h)) [%] | activity at 1 µM (BTK (h)) [%] | activity at 1 µM (Flt3 (D835Y) (h)) [%] | activity at 1 µM (Flt3 (h)) [%] | activity at 1 µM (JAK3 (h)) [%] | SMILES | ring closure, yield of all isomers [1] [%]
1 | 2 | 17 | 4 | 19 | 8 | O=C(/C=C/CN1CCC(O)C1)Nc1cc2cc(c1)Nc1nccc(n1)-c1cccc(c1)COC/C=C/COC2 (stereo not drawn) [XVI-18] | 
2 | 19 | 48 | -1 | 20 | 32 | C1=C/COCc2cccc(c2)-c2ccnc(n2)Nc2cc(cc(OC/C=C/CN3CCOCC3)c2)COC/1 [XVI-16] | 
3 |  |  |  |  |  | CC(C)(C)OC(=O)Nc1cc2cc(c1)Nc1nccc(n1)-c1cccc(c1)COCC=CCOC2 | 50
4 | 35 | 64 | 0 | 6 | 83 | CN1C/C=C/COCc2cccc(c2)-c2ccnc(n2)Nc2cc(cc(NC(=O)/C=C/CN3CCCC3)c2)C1 [XVI-25] | 
5 | 45 | 72 | 1 | 4 | 60 | CN1C/C=C/COCc2cccc(c2)-c2ccnc(n2)Nc2cc(cc(NC(=O)C#CCN3CCOCC3)c2)C1 [XVII-5] | 
6 | 50 | 86 | 2 | 7 | 57 | C=CC(=O)Nc1cc2cc(c1)Nc1nccc(n1)-c1cccc(c1)COC/C=C/CN(C)C2 [XVI-31] | 
7 | 85 | 90 | 33 | 91 | 97 | C1=C/COCc2ccc(OC/C=C/CN3CCCC3)c(c2)Nc2nccc(n2)-c2cccc(c2)COC/1 [XVI-20] | 
8 | 13 | 36 | -1 | 5 | 36 | CCCC#CC(=O)Nc1cc2cc(c1)Nc1nccc(n1)-c1cccc(c1)COC/C=C/COC2 [XVII-2] | 
9 | 45 | 77 | 2 | 8 | 52 | CN1C/C=C/COCc2cccc(c2)-c2ccnc(n2)Nc2cc(cc(NC(=O)/C=C/c3ccc(C#N)cc3)c2)C1 [XVI-27] | 
10 | 85 | 90 | 27 | 78 | 10 | C1=C/COCc2ccc(OC/C=C/CN3CCOCC3)c(c2)Nc2nccc(n2)-c2cccc(c2)COC/1 [XVI-23] | 
11 | 42 | 61 | 3 | 12 | 56 | N#Cc1ccc(/C=C/C(=O)Nc2cc3cc(c2)Nc2nccc(n2)-c2cccc(c2)COC/C=C/COC3)cc1 [XVI-2] | 
12 | 57 | 71 | 1 | 7 | 77 | CN1C/C=C/COCc2cccc(c2)-c2ccnc(n2)Nc2cc(N)cc(c2)C1 [XIII-2] | 
13 | 98 | 87 | 79 | 125 | 87 | C1=C/COCc2ccc(O/C=C/CN3CCCC3)c(c2)Nc2nccc(n2)-c2cccc(c2)CCC/1 [XVI-34] | 
14 | 52 | 80 | 3 | 7 | 83 | CCCC#CC(=O)Nc1cc2cc(c1)Nc1nccc(n1)-c1cccc(c1)COC/C=C/CN(C)C2 [XVII-4] | 
